Drawing on ChEMBL document CHEMBL1201862, “PubChem BioAssay data set” (2004), this text covers IC50, EC50 and AC50 for four compounds.

Calls of active or inactive are those of the source.

In assay [1] the test system is Staphylococcus aureus. The assay is described as follows: Inhibitors of Bacterial Quorum Sensing Structure Activity Relationship (SAR) Analysis: Dose Response Assay. [Related pubchem assays: 700, 527 ]. The assay is classed as functional, organism-based.
Assay [2] has as its target Voltage-gated N-type calcium channel alpha-1B subunit/Amyloid beta A4 precursor protein-binding family A member 1 (Homo sapiens, UniProt Q00975+Q02410). Nature of the assay: disruptors of Mint-PDZ/N-type channel peptide interaction – biochemical, HTRF, set 2, SAR follow-up (AID 434980). The assay is classed as functional. In general terms: TR-FRET usually uses a lanthanide donor and a delayed reading to cut background.

Assay [3] deals with T1, Eukaryotic translation initiation factor 2-alpha kinase 3 (Homo sapiens, UniProt Q9NZJ5). The assay is described as follows: Counterscreen assay for PERK inhibitors: Dose response cell-based high throughput screening assay to measure inhibition of PERK at 6 hours. [Related pubchem assays: 1522, 1416 ]. The assay is classed as functional. (Counterscreens check selectivity or assay interference.)
T1 sequence (Q9NZJ5 whole entry): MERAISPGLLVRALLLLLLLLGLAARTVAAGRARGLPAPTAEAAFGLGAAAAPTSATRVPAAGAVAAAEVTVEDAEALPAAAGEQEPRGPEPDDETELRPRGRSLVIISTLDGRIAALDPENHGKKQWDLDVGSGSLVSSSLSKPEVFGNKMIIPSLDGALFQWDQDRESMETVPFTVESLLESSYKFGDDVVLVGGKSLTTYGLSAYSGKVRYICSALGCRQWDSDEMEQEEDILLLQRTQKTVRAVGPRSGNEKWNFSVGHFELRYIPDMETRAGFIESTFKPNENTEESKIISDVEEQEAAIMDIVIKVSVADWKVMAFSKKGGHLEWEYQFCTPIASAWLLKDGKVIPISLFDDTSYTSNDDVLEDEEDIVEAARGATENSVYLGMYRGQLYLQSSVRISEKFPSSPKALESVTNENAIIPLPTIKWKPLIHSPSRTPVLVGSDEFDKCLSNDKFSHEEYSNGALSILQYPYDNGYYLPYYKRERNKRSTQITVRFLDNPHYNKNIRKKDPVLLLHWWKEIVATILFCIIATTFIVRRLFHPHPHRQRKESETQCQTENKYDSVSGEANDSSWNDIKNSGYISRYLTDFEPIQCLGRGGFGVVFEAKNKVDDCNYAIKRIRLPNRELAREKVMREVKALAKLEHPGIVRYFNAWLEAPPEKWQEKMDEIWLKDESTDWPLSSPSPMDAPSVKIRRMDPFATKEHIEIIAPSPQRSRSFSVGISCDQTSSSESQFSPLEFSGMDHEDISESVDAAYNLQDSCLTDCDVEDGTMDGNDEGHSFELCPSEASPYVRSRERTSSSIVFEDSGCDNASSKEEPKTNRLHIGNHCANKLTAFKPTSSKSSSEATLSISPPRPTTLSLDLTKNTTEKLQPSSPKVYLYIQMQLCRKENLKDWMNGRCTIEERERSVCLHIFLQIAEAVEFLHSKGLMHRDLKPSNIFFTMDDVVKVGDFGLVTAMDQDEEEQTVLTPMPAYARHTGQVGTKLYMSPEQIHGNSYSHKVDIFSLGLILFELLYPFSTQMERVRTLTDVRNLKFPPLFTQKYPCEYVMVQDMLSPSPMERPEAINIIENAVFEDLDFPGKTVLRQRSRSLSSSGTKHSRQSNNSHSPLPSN

The target in assay [4] is T1, Eukaryotic translation initiation factor 2-alpha kinase 3. Nature of the assay: Dose response cell-based high-throughput screening assay to measure PERK inhibition. [Related pubchem assays: 1416 ]. The class given is functional.
The target in assay [5] is Cytochrome P450 2D6 (Homo sapiens, UniProt P10635).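 Note: CYP2D6 member of a cytochrome P450 panel assay.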
Chain of Cytochrome P450 2D6 (P10635 whole entry): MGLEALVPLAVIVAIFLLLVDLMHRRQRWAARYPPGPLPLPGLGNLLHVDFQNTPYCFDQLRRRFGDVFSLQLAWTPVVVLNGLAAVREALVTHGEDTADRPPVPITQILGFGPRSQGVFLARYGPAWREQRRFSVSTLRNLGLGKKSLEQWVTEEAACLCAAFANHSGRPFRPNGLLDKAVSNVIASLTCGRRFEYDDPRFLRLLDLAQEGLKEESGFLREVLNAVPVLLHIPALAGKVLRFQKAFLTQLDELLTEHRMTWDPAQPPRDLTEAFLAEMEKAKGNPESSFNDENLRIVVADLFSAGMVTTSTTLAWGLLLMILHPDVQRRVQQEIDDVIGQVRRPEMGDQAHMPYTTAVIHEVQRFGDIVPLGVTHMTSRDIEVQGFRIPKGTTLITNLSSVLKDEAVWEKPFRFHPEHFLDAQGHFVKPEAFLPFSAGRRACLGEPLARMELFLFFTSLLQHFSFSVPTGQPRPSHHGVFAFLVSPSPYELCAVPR
In assay [6] the target is Melanin-concentrating hormone receptor 1 (Homo sapiens, UniProt Q99705). The assay is described as follows: Fluorescence-based counterscreen for antagonists of the G-protein coupled receptor 7 (GPR7): cell-based high throughput dose response assay to identify antagonists of the melanin-concentrating hormone receptor 1 (MCHR1). The assay is classed as functional.

Chain of Voltage-gated N-type calcium channel alpha-1B subunit/Amyloid beta A4 precursor protein-binding family A member 1 (Q00975 whole entry): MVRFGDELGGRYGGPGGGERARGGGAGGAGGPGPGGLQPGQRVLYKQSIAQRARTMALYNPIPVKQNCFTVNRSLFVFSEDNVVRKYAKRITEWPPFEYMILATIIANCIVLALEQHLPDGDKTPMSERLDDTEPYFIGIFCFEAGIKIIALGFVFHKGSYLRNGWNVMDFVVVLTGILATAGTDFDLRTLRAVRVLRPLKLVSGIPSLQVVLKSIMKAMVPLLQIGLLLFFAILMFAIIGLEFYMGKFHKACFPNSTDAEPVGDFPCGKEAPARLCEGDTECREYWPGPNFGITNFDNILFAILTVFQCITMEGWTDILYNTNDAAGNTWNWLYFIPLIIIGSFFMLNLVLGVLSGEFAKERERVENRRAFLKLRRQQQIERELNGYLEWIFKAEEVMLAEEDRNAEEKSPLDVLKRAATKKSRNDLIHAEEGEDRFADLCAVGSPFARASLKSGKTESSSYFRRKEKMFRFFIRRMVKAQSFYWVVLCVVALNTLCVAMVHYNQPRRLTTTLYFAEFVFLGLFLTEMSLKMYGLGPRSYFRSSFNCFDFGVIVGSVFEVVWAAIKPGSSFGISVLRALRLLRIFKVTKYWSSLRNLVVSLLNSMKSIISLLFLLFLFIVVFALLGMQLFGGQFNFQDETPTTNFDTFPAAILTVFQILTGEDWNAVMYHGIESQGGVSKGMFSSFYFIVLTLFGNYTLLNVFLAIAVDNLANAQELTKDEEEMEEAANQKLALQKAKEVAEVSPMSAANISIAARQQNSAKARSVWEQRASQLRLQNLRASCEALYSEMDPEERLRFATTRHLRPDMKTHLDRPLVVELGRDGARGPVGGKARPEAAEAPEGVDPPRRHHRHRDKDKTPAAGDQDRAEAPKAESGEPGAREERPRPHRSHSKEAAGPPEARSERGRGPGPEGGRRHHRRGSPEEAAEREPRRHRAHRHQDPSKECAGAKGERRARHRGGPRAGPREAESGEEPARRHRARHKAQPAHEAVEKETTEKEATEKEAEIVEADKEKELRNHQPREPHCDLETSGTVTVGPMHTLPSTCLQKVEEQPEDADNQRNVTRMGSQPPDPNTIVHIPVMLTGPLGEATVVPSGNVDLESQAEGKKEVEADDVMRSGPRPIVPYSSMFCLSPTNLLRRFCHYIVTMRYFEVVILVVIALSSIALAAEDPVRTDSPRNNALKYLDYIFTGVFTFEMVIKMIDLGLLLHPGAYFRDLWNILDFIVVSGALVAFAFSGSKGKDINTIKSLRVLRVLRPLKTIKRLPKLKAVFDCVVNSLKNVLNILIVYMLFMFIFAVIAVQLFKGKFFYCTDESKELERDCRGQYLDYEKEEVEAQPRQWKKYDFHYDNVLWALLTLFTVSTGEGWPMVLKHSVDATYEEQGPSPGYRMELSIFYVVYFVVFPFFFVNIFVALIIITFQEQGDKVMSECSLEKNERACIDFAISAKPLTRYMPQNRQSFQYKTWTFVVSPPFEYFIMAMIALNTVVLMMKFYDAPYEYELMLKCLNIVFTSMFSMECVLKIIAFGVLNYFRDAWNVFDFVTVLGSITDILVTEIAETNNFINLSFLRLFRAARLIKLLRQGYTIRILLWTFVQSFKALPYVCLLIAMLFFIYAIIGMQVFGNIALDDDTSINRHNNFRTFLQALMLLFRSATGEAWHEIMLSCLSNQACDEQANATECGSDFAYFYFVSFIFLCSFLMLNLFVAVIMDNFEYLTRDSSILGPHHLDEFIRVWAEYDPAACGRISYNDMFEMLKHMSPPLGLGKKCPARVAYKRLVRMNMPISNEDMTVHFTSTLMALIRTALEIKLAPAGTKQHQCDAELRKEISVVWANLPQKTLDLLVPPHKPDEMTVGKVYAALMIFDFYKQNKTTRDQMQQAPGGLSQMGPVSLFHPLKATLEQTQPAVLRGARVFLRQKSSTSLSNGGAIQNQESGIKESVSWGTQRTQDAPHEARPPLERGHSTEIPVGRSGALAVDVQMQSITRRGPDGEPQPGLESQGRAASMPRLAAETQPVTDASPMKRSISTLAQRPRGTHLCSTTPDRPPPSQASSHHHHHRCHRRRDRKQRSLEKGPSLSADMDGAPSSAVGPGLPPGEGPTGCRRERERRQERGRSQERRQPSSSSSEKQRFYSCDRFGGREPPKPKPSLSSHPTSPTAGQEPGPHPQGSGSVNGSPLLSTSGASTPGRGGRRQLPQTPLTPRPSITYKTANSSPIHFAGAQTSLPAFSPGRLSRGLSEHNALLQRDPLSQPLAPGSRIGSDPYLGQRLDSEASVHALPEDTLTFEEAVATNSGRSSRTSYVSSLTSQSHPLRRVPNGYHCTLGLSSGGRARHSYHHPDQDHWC
Chain of Voltage-gated N-type calcium channel alpha-1B subunit/Amyloid beta A4 precursor protein-binding family A member 1 (Q02410 whole entry): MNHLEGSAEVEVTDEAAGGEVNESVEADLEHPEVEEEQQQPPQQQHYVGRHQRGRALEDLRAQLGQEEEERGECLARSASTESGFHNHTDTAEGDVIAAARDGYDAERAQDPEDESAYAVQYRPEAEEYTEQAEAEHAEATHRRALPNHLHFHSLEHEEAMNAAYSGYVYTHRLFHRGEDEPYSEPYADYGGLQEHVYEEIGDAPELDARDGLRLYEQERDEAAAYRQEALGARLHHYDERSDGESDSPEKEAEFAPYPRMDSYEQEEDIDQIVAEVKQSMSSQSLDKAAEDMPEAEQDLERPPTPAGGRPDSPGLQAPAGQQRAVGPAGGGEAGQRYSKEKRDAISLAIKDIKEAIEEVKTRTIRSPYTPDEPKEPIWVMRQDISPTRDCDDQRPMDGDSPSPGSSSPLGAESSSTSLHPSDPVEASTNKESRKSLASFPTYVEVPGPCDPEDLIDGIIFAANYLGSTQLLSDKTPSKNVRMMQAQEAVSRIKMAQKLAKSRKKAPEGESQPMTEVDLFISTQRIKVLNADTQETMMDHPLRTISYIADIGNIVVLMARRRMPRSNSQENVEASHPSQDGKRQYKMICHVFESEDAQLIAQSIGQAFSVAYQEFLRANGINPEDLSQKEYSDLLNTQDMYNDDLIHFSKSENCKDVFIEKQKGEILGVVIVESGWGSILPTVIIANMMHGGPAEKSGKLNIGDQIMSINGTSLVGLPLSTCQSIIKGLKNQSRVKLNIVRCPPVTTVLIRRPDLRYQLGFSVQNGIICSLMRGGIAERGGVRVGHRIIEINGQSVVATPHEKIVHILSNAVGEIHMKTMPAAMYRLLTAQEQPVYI

As for `N#Cc1c(NC(=O)CN2C(=O)c3ccccc3C2=O)oc(-c2ccccc2)c1-c1ccccc1`, the IC50 (commonly the midpoint of a concentration-inhibition curve) in assay [1] was 1.99 µM (active).

As to `CN(C)CCNC(=O)c1cc(-c2ccco2)nc2ccccc12`, in assay [2], the IC50 was > 56.8 µM (inactive). As for `CCN1CC(=O)Nc2cc(S(=O)(=O)N3CCOCC3)ccc21`, the EC50 in assay [3] and in assay [4] was > 55.7 µM (not active) throughout.

As to `COC(=O)[C@@]1(Cc2ccc(F)cc2)[C@H]2c3cc(C(=O)N(C)C)n(Cc4ccccc4)c3C[C@H]2CN1C(=O)c1ccccc1`, the AC50 (in general, the midpoint of the concentration-response curve, whichever way the signal moves) in assay [5] was 20 µM (inconclusive). In addition, in assay [6], the IC50 is listed as 11.1 µM (not active).
